Values belong to the sequence of their own block, whether it stands above or below them. Ends that are not written are not given here.
How the values were obtained:
[1] = target: T1, TGF-β3 (Homo sapiens, UniProt P10600); assay: ELISA-type binding of growth factor to biotinylated peptide on streptavidin plates; details: peptide 0.2 μM on streptavidin plate, TGF-β3 1 μM-1 nM
T1 sequence (P10600 301-412 limits assumed): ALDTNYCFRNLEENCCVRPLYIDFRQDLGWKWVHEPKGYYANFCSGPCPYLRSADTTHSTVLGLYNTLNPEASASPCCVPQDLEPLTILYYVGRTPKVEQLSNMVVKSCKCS
Source text: Peptides that bind TGF-β3 were identified by phage display biopanning. Recombinant human TGF-β3 (rhTGF-β3) was biotinylated and immobilized on streptavidin-coated microtiter plates. Twenty-two different phage display libraries were used for the selection. Enrichment of target-binding phage in the selection was monitored using an ELISA-type assay with an HRP-conjugated anti-M13 antibody. After enrichment for TGF-β3 specific phage, individual phage were picked, propagated on E. coli, and tested for binding to TGF-β3. Over 20 individual phage were isolated that bound TGF-β3. […] The TGF-β3-binding peptide sequences were then synthesized using standard solid-phase peptide synthesis techniques on a Symphony Peptide Synthesizer (PROTEIN TECHNOLOGIES, Tucson, Ariz.) using standard Fmoc chemistry as described herein above at Example 2. Biotinylated peptides were generated similarly, with a GSSGK(biotin) sequence added to the C-terminus of the peptide.
The TGF-β binding peptides with the biotin moiety on their C-terminus were tested for their ability to bind the target growth factor using the following methods. Streptavidin-coated plates were first prepared by generating a 1:100 dilution of streptavidin (1 mg/mL) in 0.1M NaHCO3 buffer. […] To reveal immunoreactivity, 100 μL of para-nitrophenyl phosphate solution was added to each well, and optical density was recorded on a spectrophotometer.

[2] = test system: human MSCs (mixed with IM-9 and U937 cells); assay: Capture of MSCs from a mixed cell population with peptide on CELLECTION magnetic beads; assay type: cell-based; details: starting mixture 38% IM9, 56% U937, 4% MSC
Source text: In this experiment, biotinylated cell binding peptide, SEQ ID NO: 16, was attached to CELLECTION magnetic beads. The CELLECTION beads have streptavidin coupled to a magnetic particle through a DNA linker. Three different cell types, human MSCs, IM-9, and U937 cells were differentially labeled with […] dye and mixed in a ratio such that the MSCs represented ˜4% of the starting cell mixture (the percentage of each cell type in the starting mixture was 38% IM9, 56% U937, and 4% MSC). The cell binding peptide, SEQ ID NO: 16, was biotinylated as described herein at Example 2, as was a general cell binding peptide for use as a control peptide in the experiment. Magnetic particles with no peptide attached, as well as magnetic beads having attached either the cell binding peptide, SEQ ID NO: 16, or the control peptide were tested for their ability to capture human MSCs. The starting cell mixture was incubated with magnetic beads having either attached peptide or no peptide, the beads were washed, and the captured cells were released from the beads by DNase treatment. The cells were measured by flow cytometry histograms shown in 18A-18C. The magnetic beads without peptide captured little or no cells (FIG. 18B). The magnetic beads with attached cell binding peptide SEQ ID NO: 16 captured a cell population that was 96% MSCs (FIG. 18C).

[3] = test system: dermal fibroblasts; assay: Biotinylated peptide cell binding specificity, flow cytometry with Neutravidin-PE; set-up: species or system human; details: 25 μM solution, 30 min at 4° C.
Source text: (§1) The synthetic biotinylated cell binding peptide SEQ ID NO: 4 was examined for its ability to specifically bind MSCs compared to a number of other cells types including adipose-derived mesenchymal stem cells (ASCs), dermal fibroblasts, rodent MSCs, red blood cells, monocytes, lymphocytes and granulocytes. The cell binding peptide was biotinylated as described herein at Example 2. Cultured cells of each type were either purchased (ASCs and dermal fibroblasts) or isolated from rodent bone marrow (rodent MSCs) or human blood. Cells were first harvested and resuspended at 10^6/mL in PBS+2% fetal bovine serum (FBS). An aliquot of cells (50 μL) was incubated in 50 μL of peptide solution (25 μM in PBS+FBS) for 30 min at 4° C. Cells were then washed twice in PBS+FBS with 300×g centrifugation for 5 min between washes. Fluorescently-tagged neutravidin (Neutravidin-PE from INVITROGEN) was then added to the cells to label biotinylated peptide bound to cells. Neutravidin-PE was diluted 1:250 from stock and applied at 50 μL to cells. Cells were then washed in PBS+FBS, and acquired on a BD […]. Peptide reactivity was then measured as percent positivity relative to Neutravidin-PE staining without the addition of biotinylated peptide.

[4] = test system: endothelial colony forming cells (ECFCs); assay: Biotinylated peptide binding to endothelial and other cells, flow cytometry; set-up: species or system human; details: biotinylated peptide 10 μM, 30 min at 4° C.
Procedure: (§2) The synthetic biotinylated binding peptide SEQ ID NO: 4 was further examined for its ability to bind endothelial cells compared to other cell types (see FIG. 16). […] ECFCs are clonally expanded cells isolated from human umbilical cord blood, and are considered highly proliferative endothelial progenitor cells (EPCs) based on their clonogenic and proliferative potential. In another experiment, binding peptide SEQ ID NO: 4 was assayed for its ability to selectively isolate endothelial cells versus smooth muscle cells in the presence of whole blood. HUVECs or UASMCs were incubated in the presence of medium containing 20% whole blood and binding peptide SEQ ID NO: 4-conjugated magnetic beads (via biotin-SA) for 30 min. The solutions containing the bead-peptide-cell complexes were then passed through a […] LS column in a magnetic field. The column was washed, and the remaining peptide-bound cells were then released from the magnetic field and counted.

[5] = test system: human ASCs (adipose-derived mesenchymal stem cells); assay: Biotinylated peptide cell binding specificity, flow cytometry with Neutravidin-PE; details: 25 μM solution, 30 min at 4° C.
Source text: as §1

[6] = test system: human MSCs; assay: as above; details: 25 μM solution, 30 min at 4° C.
Source text: as §1

[7] = test system: human umbilical vein endothelial cells (HUVECs); assay: Biotinylated peptide binding to endothelial and other cells, flow cytometry; details: biotinylated peptide 10 μM, 30 min at 4° C.
Procedure: as §2

[8] = test system: umbilical artery smooth muscle cells (UASMCs); assay: as above; details: biotinylated peptide 10 μM, 30 min at 4° C.
Procedure: as §2

binding affinity for TGF-β3 [1]: best binding affinity
Sequence: SSCNNLSVCTFDKIIERNRSSR (SSCNNLSVCTFDKIIERNRSSRGSSG-{K(biotin)}; cysteine pairing not given here) [SEQ ID NO: 21, tested with C-terminal GSSGK(biotin)]

Sequence: SSFRFGPLGTWNYPSTDNAE (also: biotin, site not given here) [SEQ ID NO: 16, tested biotinylated]
MSCs in captured cell population [2]: 96%

Sequence: SSFWDVCQGDGTCYGGGSR (SSFWDVCQGDGTCYGGGSRGSSG-{K(biotin)}; cysteine pairing not given here) [SEQ ID NO: 4, tested biotinylated (C-terminal GSSGK(biotin) or other spacer)]
binding to dermal fibroblasts (percent positivity relative to Neutravidin-PE staining) [3]: high binding
cross-reactivity with ECFCs [4]: cross-reacted strongly
binding to human ASCs (percent positivity relative to Neutravidin-PE staining) [5]: high binding
binding to human MSCs (percent positivity relative to Neutravidin-PE staining) [6]: high binding
cross-reactivity with HUVECs [7]: cross-reacted strongly
cross-reactivity with UASMCs [8]: weakly

— patent US20110117169A1, “METHODS AND COMPOSITIONS FOR CAPTURE OF CELLS” (AFFINERGY, INC., priority 2009, published 2011)
